Where “and” joins values, the source holds several entries; their conditions need not be identical. Equal entries are not always repeated. Where two headings read alike, the source gives them in different places.
What was measured:
canine heart = conditions: for AH time / Heart rate / Mean arterial pressure: mean ± SE
Protocol: Fourteen adult mongrel dogs of either sex weighing between 19 and 25 kg were prepared for chronic electrophysiologic investigation by implanting epicardial electrodes and an indwelling aortic catheter. The dogs were fasted overnight and initially anesthetized with halothane on the day of surgery. After tracheal intubation, anesthesia was maintained with isoflurane and oxygen via positive pressure ventilation to keep end tidal carbon dioxide within the normal range. Muscular relaxation was induced by pancuronium. A right thoracotomy was performed in the fifth intercostal space. Three bipolar electrode pairs were sutured to the epicardial surface of the right atrial appendage and on the right and left ventricular apex (FIG. 5). A bipolar electrode was sutured to the right atrium close to the anatomical region of the sinoatrial node. A bipolar plunge electrode was placed into base of the interventricular septum to record a His bundle electrogram. An indwelling arterial catheter was placed into the aorta through the left femoral artery after surgical exposure of the artery at the inner side of the hind limb. All electrode leads were subcutaneously tunneled and exited through the skin between the scapulae. Incisions were closed in anatomic fashion and standard postoperative methods of analgesia were provided with 0.015 mg/kg of buprenorphine (Buprenex®, Reckitt & Colman, Hull, UK) and two times of 25 mg/kg cefazolin (Cefazolin Sodium®, SoloPak Laboratories, Elk Groove Village, Ill.) and dogs were allowed to recover from surgery for a period of seven days prior to testing.
Electrical signals from the bipolar electrodes, after suitable amplification in a custom built preamplifier (gain 1000), were filtered in a separate custom designed and built common mode rejection amplifier with a bandpass filter of 10-1000 Hz and individually adjusted for signal strength (maximal gain 400). […] Right atrial appendage (RA), right ventricular apex (RVA) and His bundle electrograms (HB) were recorded, simultaneously. […] All measurements of conduction times were made during spontaneous sinus rhythm.
The His bundle electrode (HBE) was advanced into the base of the interatrial septum from the aortic root. The electrode was advanced from a point located just behind and to the right of the origin of the right coronary artery. The HBE was slowly advanced parallel to the aorta, inferiorly and slightly anteriorly until a well discernible His potential was recorded. AV conduction (AH) interval was measured as the time difference (ms) between the onset of the initial rapid deflection in the RA electrogram to the beginning of the His potential in the HB electrogram. His-ventricular (HV) conduction time interval (ms) was measured from the beginning of the His potential (HBE) to the initial deflection of the QRS complex wave (earliest left ventricular activation) in a simultaneously recorded surface ECG lead II.
As an indicator of automaticity, sinus node recovery time (SNRT) was determined by pacing the right atrial appendage (30 s at 180 and 200 beats/min at 2 msec pulse duration; 2×threshold). SNRT was measured from the last pacing spike to the first spontaneous atrial activity on the His bundle electrogram after cessation of pacing (ms).
A timed extrastimulus (S2) was delivered 300 ms after the preceding pacing spike (S1).
Verapamil was dissolved in 5% dextrose and water ([…]).
During the postoperative period, each dog was trained to stand quietly in a sling during electrophysiological monitoring. Prior to measurement, electrical signals in each dog were monitored to verify the absence of spontaneous arrhythmias other-than normal respiratory sinus arrhythmias.
From the resting dog, 5 channel records were obtained at a sampling rate of 1 kHz per channel for 7 min to determine the following conduction intervals: AH, HV, QRS, QT and HR. A corrected QT interval [QTc=QT interval in ms/ (R-R interval in s)^1/2 ] was also calculated.

[1] = pH 5, individual replicates

COc1ccc(CCN(C)CCCC(C#N)(c2ccc(OC)c(OC)c2)C(C)C)cc1OC (racemic) [90/10S]
AH time (canine heart; 0.1 mg/kg i.v., 0 min): 87 ± 6 ms | Heart rate (canine heart; 0.1 mg/kg i.v., 0 min): 111 ± 7 beats per min | Mean arterial pressure (canine heart; 0.1 mg/kg i.v., 0 min): 94 ± 3 mmHg | AH time (canine heart; 0.1 mg/kg i.v., 1 min): 88 ± 6 ms | Heart rate (canine heart; 0.1 mg/kg i.v., 1 min): 103 ± 7 beats per min | Mean arterial pressure (canine heart; 0.1 mg/kg i.v., 1 min): 97 ± 4 mmHg | AH time (canine heart; 0.1 mg/kg i.v., 2 min): 90 ± 6 ms | Heart rate (canine heart; 0.1 mg/kg i.v., 2 min): 104 ± 6 beats per min | Mean arterial pressure (canine heart; 0.1 mg/kg i.v., 2 min): 99 ± 3 mmHg | AH time (canine heart; 0.1 mg/kg i.v., 3 min): 91 ± 6 ms | Heart rate (canine heart; 0.1 mg/kg i.v., 3 min): 101 ± 8 beats per min | Mean arterial pressure (canine heart; 0.1 mg/kg i.v., 3 min): 99 ± 3 mmHg | AH time (canine heart; 0.1 mg/kg i.v., 4 min): 89 ± 6 ms | Heart rate (canine heart; 0.1 mg/kg i.v., 4 min): 101 ± 7 beats per min | Mean arterial pressure (canine heart; 0.1 mg/kg i.v., 4 min): 100 ± 4 mmHg | AH time (canine heart; 0.1 mg/kg i.v., 5 min): 89 ± 7 ms | Heart rate (canine heart; 0.1 mg/kg i.v., 5 min): 103 ± 7 beats per min | Mean arterial pressure (canine heart; 0.1 mg/kg i.v., 5 min): 99 ± 3 mmHg | AH time (canine heart; 0.2 mg/kg i.v., 0 min): 91 ± 7 ms | Heart rate (canine heart; 0.2 mg/kg i.v., 0 min): 123 ± 7 beats per min | Mean arterial pressure (canine heart; 0.2 mg/kg i.v., 0 min): 94 ± 4 mmHg | AH time (canine heart; 0.2 mg/kg i.v., 1 min): 95 ± 8 ms | Heart rate (canine heart; 0.2 mg/kg i.v., 1 min): 124 ± 10 beats per min | Mean arterial pressure (canine heart; 0.2 mg/kg i.v., 1 min): 98 ± 4 mmHg | AH time (canine heart; 0.2 mg/kg i.v., 2 min): 99 ± 8 ms | Heart rate (canine heart; 0.2 mg/kg i.v., 2 min): 116 ± 7 beats per min | Mean arterial pressure (canine heart; 0.2 mg/kg i.v., 2 min): 99 ± 4 mmHg | AH time (canine heart; 0.2 mg/kg i.v., 3 min): 98 ± 7 ms | Heart rate (canine heart; 0.2 mg/kg i.v., 3 min): 113 ± 6 beats per min | Mean arterial pressure (canine heart; 0.2 mg/kg i.v., 3 min): 99 ± 4 mmHg | AH time (canine heart; 0.2 mg/kg i.v., 4 min): 97 ± 7 ms | Heart rate (canine heart; 0.2 mg/kg i.v., 4 min): 116 ± 7 beats per min | Mean arterial pressure (canine heart; 0.2 mg/kg i.v., 4 min): 100 ± 4 mmHg | AH time (canine heart; 0.2 mg/kg i.v., 5 min): 104 ± 7 ms | Heart rate (canine heart; 0.2 mg/kg i.v., 5 min): 118 ± 8 beats per min | Mean arterial pressure (canine heart; 0.2 mg/kg i.v., 5 min): 101 ± 3 mmHg | AH time (canine heart; 0.4 mg/kg i.v., 0 min): 100 ± 9 ms | Heart rate (canine heart; 0.4 mg/kg i.v., 0 min): 145 ± 10 beats per min | Mean arterial pressure (canine heart; 0.4 mg/kg i.v., 0 min): 83 ± 7 mmHg | AH time (canine heart; 0.4 mg/kg i.v., 1 min): 111 ± 10 ms | Heart rate (canine heart; 0.4 mg/kg i.v., 1 min): 134 ± 9 beats per min | Mean arterial pressure (canine heart; 0.4 mg/kg i.v., 1 min): 89 ± 7 mmHg | AH time (canine heart; 0.4 mg/kg i.v., 2 min): 116 ± 10 ms | Heart rate (canine heart; 0.4 mg/kg i.v., 2 min): 128 ± 10 beats per min | Mean arterial pressure (canine heart; 0.4 mg/kg i.v., 2 min): 90 ± 7 mmHg | AH time (canine heart; 0.4 mg/kg i.v., 3 min): 116 ± 12 ms | Heart rate (canine heart; 0.4 mg/kg i.v., 3 min): 128 ± 11 beats per min | Mean arterial pressure (canine heart; 0.4 mg/kg i.v., 3 min): 90 ± 7 mmHg | AH time (canine heart; 0.4 mg/kg i.v., 4 min): 114 ± 9 ms | Heart rate (canine heart; 0.4 mg/kg i.v., 4 min): 129 ± 10 beats per min | Mean arterial pressure (canine heart; 0.4 mg/kg i.v., 4 min): 93 ± 7 mmHg | AH time (canine heart; 0.4 mg/kg i.v., 5 min): 112 ± 10 ms | Heart rate (canine heart; 0.4 mg/kg i.v., 5 min): 125 ± 9 beats per min | Mean arterial pressure (canine heart; 0.4 mg/kg i.v., 5 min): 92 ± 7 mmHg | Sinus node recovery time (SNRT), significance (canine heart; paced at 200 beats/min): significant decrease

COc1ccc(CCN(C)CCCC(C#N)(c2ccc(OC)c(OC)c2)C(C)C)cc1OC (racemic) [compound 90]
Concentration in octanol [1]: 5800 ng/mL and 5290 ng/mL and 4790 ng/mL | Concentration in water [1]: 5900 ng/mL and 6180 ng/mL and 5100 ng/mL

COc1ccc(CCN(C)CCCC(C#N)(c2ccc(OC)c(OC)c2)C(C)C)cc1OC (racemic) [compound 70]
Concentration in octanol [1]: 4350 ng/mL and 4200 ng/mL and 4240 ng/mL | Concentration in water [1]: 5810 ng/mL and 6000 ng/mL and 5380 ng/mL

COc1ccc(CCN(C)CCCC(C#N)(c2ccc(OC)c(OC)c2)C(C)C)cc1OC (racemic) [80/20S]
AH time (canine heart; 0.1 mg/kg i.v., 0 min): 90 ± 4 ms | Heart rate (canine heart; 0.1 mg/kg i.v., 0 min): 125 ± 8 beats per min | Mean arterial pressure (canine heart; 0.1 mg/kg i.v., 0 min): 96 ± 3 mmHg | AH time (canine heart; 0.1 mg/kg i.v., 1 min): 95 ± 5 ms | Heart rate (canine heart; 0.1 mg/kg i.v., 1 min): 126 ± 7 beats per min | Mean arterial pressure (canine heart; 0.1 mg/kg i.v., 1 min): 99 ± 3 mmHg | AH time (canine heart; 0.1 mg/kg i.v., 2 min): 97 ± 5 ms | Heart rate (canine heart; 0.1 mg/kg i.v., 2 min): 119 ± 7 beats per min | Mean arterial pressure (canine heart; 0.1 mg/kg i.v., 2 min): 98 ± 3 mmHg | AH time (canine heart; 0.1 mg/kg i.v., 3 min): 98 ± 5 ms | Heart rate (canine heart; 0.1 mg/kg i.v., 3 min): 115 ± 7 beats per min | Mean arterial pressure (canine heart; 0.1 mg/kg i.v., 3 min): 99 ± 3 mmHg | AH time (canine heart; 0.1 mg/kg i.v., 4 min): 96 ± 5 ms | Heart rate (canine heart; 0.1 mg/kg i.v., 4 min): 116 ± 8 beats per min | Mean arterial pressure (canine heart; 0.1 mg/kg i.v., 4 min): 100 ± 3 mmHg | AH time (canine heart; 0.1 mg/kg i.v., 5 min): 96 ± 6 ms | Heart rate (canine heart; 0.1 mg/kg i.v., 5 min): 123 ± 7 beats per min | Mean arterial pressure (canine heart; 0.1 mg/kg i.v., 5 min): 100 ± 3 mmHg | AH time (canine heart; 0.2 mg/kg i.v., 0 min): 99 ± 5 ms | Heart rate (canine heart; 0.2 mg/kg i.v., 0 min): 136 ± 9 beats per min | Mean arterial pressure (canine heart; 0.2 mg/kg i.v., 0 min): 89 ± 2 mmHg | AH time (canine heart; 0.2 mg/kg i.v., 1 min): 111 ± 8 ms | Heart rate (canine heart; 0.2 mg/kg i.v., 1 min): 134 ± 8 beats per min | Mean arterial pressure (canine heart; 0.2 mg/kg i.v., 1 min): 95 ± 4 mmHg | AH time (canine heart; 0.2 mg/kg i.v., 2 min): 115 ± 9 ms | Heart rate (canine heart; 0.2 mg/kg i.v., 2 min): 129 ± 7 beats per min | Mean arterial pressure (canine heart; 0.2 mg/kg i.v., 2 min): 94 ± 4 mmHg | AH time (canine heart; 0.2 mg/kg i.v., 3 min): 113 ± 8 ms | Heart rate (canine heart; 0.2 mg/kg i.v., 3 min): 124 ± 7 beats per min | Mean arterial pressure (canine heart; 0.2 mg/kg i.v., 3 min): 97 ± 4 mmHg | AH time (canine heart; 0.2 mg/kg i.v., 4 min): 115 ± 9 ms | Heart rate (canine heart; 0.2 mg/kg i.v., 4 min): 125 ± 8 beats per min | Mean arterial pressure (canine heart; 0.2 mg/kg i.v., 4 min): 99 ± 3 mmHg | AH time (canine heart; 0.2 mg/kg i.v., 5 min): 116 ± 9 ms | Heart rate (canine heart; 0.2 mg/kg i.v., 5 min): 123 ± 9 beats per min | Mean arterial pressure (canine heart; 0.2 mg/kg i.v., 5 min): 98 ± 3 mmHg | AH time (canine heart; 0.4 mg/kg i.v., 0 min): 111 ± 5 ms | Mean arterial pressure (canine heart; 0.4 mg/kg i.v., 0 min): 87 ± 3 mmHg | Heart rate (canine heart; 0.4 mg/kg i.v., 0 min, listed as 80/205): 155 ± 12 beats per min | AH time (canine heart; 0.4 mg/kg i.v., 1 min): 121 ± 4 ms | Mean arterial pressure (canine heart; 0.4 mg/kg i.v., 1 min): 95 ± 3 mmHg | Heart rate (canine heart; 0.4 mg/kg i.v., 1 min, listed as 80/205): 153 ± 11 beats per min | AH time (canine heart; 0.4 mg/kg i.v., 2 min): 123 ± 5 ms | Mean arterial pressure (canine heart; 0.4 mg/kg i.v., 2 min): 97 ± 3 mmHg | Heart rate (canine heart; 0.4 mg/kg i.v., 2 min, listed as 80/205): 149 ± 10 beats per min | AH time (canine heart; 0.4 mg/kg i.v., 3 min): 125 ± 6 ms | Mean arterial pressure (canine heart; 0.4 mg/kg i.v., 3 min): 101 ± 3 mmHg | Heart rate (canine heart; 0.4 mg/kg i.v., 3 min, listed as 80/205): 147 ± 10 beats per min | AH time (canine heart; 0.4 mg/kg i.v., 4 min): 127 ± 6 ms | Mean arterial pressure (canine heart; 0.4 mg/kg i.v., 4 min): 103 ± 3 mmHg | Heart rate (canine heart; 0.4 mg/kg i.v., 4 min, listed as 80/205): 140 ± 7 beats per min | AH time (canine heart; 0.4 mg/kg i.v., 5 min): 129 ± 6 ms | Mean arterial pressure (canine heart; 0.4 mg/kg i.v., 5 min): 103 ± 3 mmHg | Heart rate (canine heart; 0.4 mg/kg i.v., 5 min, listed as 80/205): 135 ± 9 beats per min | Occurrence of second and third degree AV conduction block (canine heart; 0.4 mg/kg i.v., listed as 80R/20S-verapamil): 3 animals

Source: patent US5955500A (G. D. Searle & Co., priority 1997, dated 1999)
